According to paper PMC3463587, “A Series of Beta-Carboline Derivatives Inhibit the Kinase Activity of PLKs” (PLoS ONE, 2012):

Assays:
MG63 cells = test: MTT cell proliferation assay, MG63; assay type: cell-based; conditions: Homo sapiens, MG-63, 48 hr
Source text: (§1) BI2536 was purchased from Selleck (Selleck, USA).

CDK2/cyclinE(h) = CDK2/cyclinE(h) (Homo sapiens, UniProt P24941); test: In vitro kinase assay CDK2/cyclinE (33P-ATP); assay type: biochemical
Method: (§2) The inhibition of PLK1 kinase activity was assessed using the Cyclex PLK1 Assay/Inhibitor Screening Kit (MBL International Corporation, Japan). The kit includes anti-phospho-threonine polyclonal antibody (PPT-07) and peroxidase coupled anti-rabbit IgG antibody as a reporter in a 96-well ELSIA format. Compounds were used at the concentrations from 10^− ^3 to 10^2 µg/ml and the absorbance was determined at 450 nm. A similar protocol was used to determine the kinase inhibition for PLK2, PLK3, Aurora A and Aurora B. The kinase activity of CDK1/cyclinB and CDK2/cyclinE was analyzed in the presence of serially diluted inhibitors. For each reaction, 20 ng of recombinant kinase was used and […] casein from bovine milk (Sigma) was added as the kinase substrate. The kinase reaction buffer contains 8 mM MOPS pH7.0, 0.2 mM EDTA, 0.1 mg/ml histone H1, 10 mM and MgAcetace and [γ^− ^33P-ATP] (500 cpm/pmol). The reaction was initiated by adding the MgATP mix. After incubation for 40 minutes at room temperature, the reaction was stopped by the addition of 3% phosphoric acid solution. We spotted 10 µl of the reaction mixture onto a P30 filtermat and washed three times for 5 min with 75 mM phosphoric acid and once with methanol prior to drying and scintillation counting.

HeLa cells [1] = test: FACS cell cycle analysis (PI), HeLa; assay type: cell-based, human
Method: It is well documented that PLK1 is involved in multiple steps in mitosis, such as centrosome maturation and establishment of bipolar spindle. […] Therefore, the down-regulation of PLK1 would change the distribution of cells in different cell cycle stages. To test this possibility, fluorescence-activated cell sorter (FACS) analysis was used to analyze the DNA content of HeLa cells treated with the identified PLK1 inhibitors, DH281, DH285, and DH287. HeLa cells were first incubated in the absence and presence of these compounds at different concentrations (0, 0.12, 0.48 and 1.92 µM) for 48 hr. […] Treatment with a lower concentration of the compounds (0.12 and 0.48 µM) also led to an obvious increase of the cell population in G2/M phase (Figure 4A, Table 3). Moreover, the proportion of HeLa cells in G2/M phase increased over time after incubation in the presence of 0.8 µM of DH281, DH285 and DH287 (Figure 4B, Table 4). […] We also determined the cell cycle distribution of the non-cancer MRC5 cells after treatment with DH281 at different concentrations. […] It is also possible that inhibition of the kinase activity of the whole PLK family by beta-carboline compounds results in the defect in cell cycle progression.
[…] The floated and attached cells were treated by trypsinization and washed with cold PBS. The cells were then fixed with 70% (v/v) ethanol at 4°C overnight. The fixed cells were washed twice with PBS and incubated with 50 µg/mL RNase A (Sigma, USA) and 50 µg/mL propidium iodide (PI) (Sigma, USA) at 37°C for 30 min.

PLK2 = PLK2 (Homo sapiens, UniProt Q9NYY3); test: In vitro kinase assay PLK2; assay type: biochemical
PLK2, sequence (Q9NYY3 whole entry, species assumed): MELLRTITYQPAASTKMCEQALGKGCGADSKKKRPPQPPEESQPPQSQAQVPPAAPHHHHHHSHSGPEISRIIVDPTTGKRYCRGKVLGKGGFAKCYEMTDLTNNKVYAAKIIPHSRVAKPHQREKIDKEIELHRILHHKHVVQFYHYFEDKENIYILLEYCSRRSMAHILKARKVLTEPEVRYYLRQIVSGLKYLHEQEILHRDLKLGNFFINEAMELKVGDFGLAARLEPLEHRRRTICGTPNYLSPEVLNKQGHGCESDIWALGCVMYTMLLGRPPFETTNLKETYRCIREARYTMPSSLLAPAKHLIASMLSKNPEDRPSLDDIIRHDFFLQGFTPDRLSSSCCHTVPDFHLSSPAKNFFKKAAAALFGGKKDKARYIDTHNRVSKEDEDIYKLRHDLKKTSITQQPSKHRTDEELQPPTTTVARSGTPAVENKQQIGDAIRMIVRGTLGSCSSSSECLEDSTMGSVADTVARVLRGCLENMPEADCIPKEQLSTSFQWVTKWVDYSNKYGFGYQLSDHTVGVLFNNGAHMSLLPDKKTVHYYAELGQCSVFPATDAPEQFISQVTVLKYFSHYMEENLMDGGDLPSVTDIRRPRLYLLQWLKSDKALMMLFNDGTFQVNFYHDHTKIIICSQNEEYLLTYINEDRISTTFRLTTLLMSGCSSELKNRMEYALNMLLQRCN
Method: as §2

HeLa cells [2] = test: Immunofluorescence of spindle (anti-α-tubulin); assay type: cell-based, human; conditions: 1.21 µM, 24 hr
Source text: PLK1 plays a pivotal role in centrosome maturation and spindle formation during mitosis. Thus, the down-regulation of PLK1 activity would prevent centrosome maturation as well as the formation of a bipolar spindle. Anti-α-tubulin antibody was used for immunofluorescence staining in order to examine the spindle structure in cells treated with the beta-carboline compounds.
HeLa cells were collected and then grown onto cover-slips. […] After washed with washing buffer (Beyotime, P0106) for 3 times, the cells were incubated with blocking buffer (Beyotime, P0102) for 60 min. The primary antibody anti-α-tubulin (Abcam) was used at 1∶200 dilutions; H&L (Cy5)-labeled secondary antibody was used at 1∶200 dilutions. The cover-slips were then mounted with PBS:glycerol (1∶1) mounting medium containing DAPI and examined under an inverted confocal microscope. Images were analyzed by the 3D image software Volocity (Improvision).

[3] = tested on: cdc5-2 mutant yeast cells; test: Yeast growth inhibition (MIC), cdc5-2 mutant; conditions: 25°C, 24 hr
Method: The Cdc5 kinase is the functional homologue of PLK1 in budding yeast and the incubation of cdc5-2 mutants at 37°C impairs the kinase activity and stops cell growth. […] We also compared the sensitivity of wild-type and cdc5-2 mutant cells to the selected compounds at different concentrations. […] The temperature sensitive cdc5-2 mutants and wild-type strains were used. […] After incubation at 25°C for 24 hr, the growth of the yeast cells was determined by measuring OD600.

HeLa cells [4] = test: MTT cell proliferation assay, HeLa; assay type: cell-based; conditions: Homo sapiens, 48 hr
Source text: as §1

MRC5 cells = test: cells; conditions: Homo sapiens, MRC5, 48 h, read-out: IC50 MRC5, MTT, 48 hr, non-cancer cells
Method: All the beta-carboline derivatives were provided by Xinjiang Huashidan Pharmaceutical Co. Ltd. The culture media and fetal bovine serum (FBS) were purchased from Hyclone (Hyclone Laboratories Inc., USA). […] All the cell lines were obtained from the Cell Culture Centre, Institute of Basic Medical Science, Chinese Academy of Medical Science and incubated at 37°C supplied with 5% CO2. HeLa cells were grown in standard DMEM with 10% FBS.
MRC5, HeLa, HepG2, PC3 and MG63 cells were seeded at 3000–6000 cells/well (200 µl/well) in a 96-well plate and incubated overnight. Then different concentrations of compounds were added into the cell cultures with a final concentration of 0.1% DMSO and incubated for an additional 48 hr. After that, 22 µl MTT solution (5 mg/ml) was added into each well and incubated at 37°C for 4 hr.

CDK1/cyclinB(h) = CDK1/cyclinB(h) (Homo sapiens, UniProt P06493); test: In vitro kinase assay CDK1/cyclinB (33P-ATP); assay type: biochemical
CDK1/cyclinB(h), sequence (P06493 whole entry): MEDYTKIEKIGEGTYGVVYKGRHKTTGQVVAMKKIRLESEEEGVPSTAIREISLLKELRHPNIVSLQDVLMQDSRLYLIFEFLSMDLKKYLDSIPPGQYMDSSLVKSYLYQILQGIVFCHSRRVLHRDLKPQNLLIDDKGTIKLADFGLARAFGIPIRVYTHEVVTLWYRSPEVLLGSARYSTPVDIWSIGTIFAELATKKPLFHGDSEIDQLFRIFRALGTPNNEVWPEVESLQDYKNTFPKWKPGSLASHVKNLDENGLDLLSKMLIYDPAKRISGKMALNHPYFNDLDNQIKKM
CDK1/cyclinB(h), sequence (P14635 whole entry partner): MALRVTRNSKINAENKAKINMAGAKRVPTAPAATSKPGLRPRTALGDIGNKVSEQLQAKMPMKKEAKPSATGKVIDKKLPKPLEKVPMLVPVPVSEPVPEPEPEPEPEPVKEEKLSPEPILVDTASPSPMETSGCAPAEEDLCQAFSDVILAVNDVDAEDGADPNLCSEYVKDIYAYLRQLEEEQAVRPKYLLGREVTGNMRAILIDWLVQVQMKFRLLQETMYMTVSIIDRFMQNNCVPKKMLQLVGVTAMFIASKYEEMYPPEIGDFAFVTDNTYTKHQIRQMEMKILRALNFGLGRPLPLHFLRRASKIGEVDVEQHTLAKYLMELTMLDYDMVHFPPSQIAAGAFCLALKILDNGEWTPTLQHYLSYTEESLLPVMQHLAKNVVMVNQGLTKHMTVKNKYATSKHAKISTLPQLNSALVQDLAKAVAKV
Method: as §2

HepG2 cells = test: MTT cell proliferation assay, HepG2; assay type: cell-based; conditions: Homo sapiens, 48 hr
Source text: as §1

| Structure (SMILES) | IC50 (MG63 cells) | IC50 (CDK2/cyclinE(h)) | cells in G1 (HeLa cells [1]; 0.12 µM, 48 hr) | cells in G2 (G2/M) (HeLa cells [1]; 0.12 µM, 48 hr) | cells in S (HeLa cells [1]; 0.12 µM, 48 hr) | cells in G1 (HeLa cells [1]; 0.48 µM, 48 hr) | cells in G2 (G2/M) (HeLa cells [1]; 0.48 µM, 48 hr) | cells in S (HeLa cells [1]; 0.48 µM, 48 hr) | cells in G1 (HeLa cells [1]; 0.8 µM, 24 hr) | cells in G2 (G2/M) (HeLa cells [1]; 0.8 µM, 24 hr) | cells in S (HeLa cells [1]; 0.8 µM, 24 hr) | cells in G1 (HeLa cells [1]; 0.8 µM, 36 hr) | cells in G2 (G2/M) (HeLa cells [1]; 0.8 µM, 36 hr) | cells in S (HeLa cells [1]; 0.8 µM, 36 hr) | cells in G1 (HeLa cells [1]; 0.8 µM, 48 hr) | cells in G2 (G2/M) (HeLa cells [1]; 0.8 µM, 48 hr) | cells in S (HeLa cells [1]; 0.8 µM, 48 hr) | cells in G1 (HeLa cells [1]; 0.8 µM, 60 hr) | cells in G2 (G2/M) (HeLa cells [1]; 0.8 µM, 60 hr) | cells in S (HeLa cells [1]; 0.8 µM, 60 hr) | also measured |
| --- | --- | --- | --- | --- | --- | --- | --- | --- | --- | --- | --- | --- | --- | --- | --- | --- | --- | --- | --- | --- | --- |
| Cc1c2c(cc[n+]1Cc1ccccc1)c1ccc(OCc3ccc(F)cc3)cc1n2CCCc1ccccc1 [DH281] | 1600 ± 150 nM | > 100 µM | 70.5% | 10.1% | 19.4% | 55.3% | 14.4% | 30.3% | 64.1% | 10.2% | 25.7% | 53.4% | 18.9% | 27.7% | 42.4% | 16.6% | 41.1% | 33.9% | 14.6% | 51.6% | cells in G1 (HeLa cells [1]; 1.92 µM, 48 hr): 38.4%; cells in G2 (G2/M) (HeLa cells [1]; 1.92 µM, 48 hr): 26.7%; cells in S (HeLa cells [1]; 1.92 µM, 48 hr): 34.9%; IC50 (PLK2): 3.82 µM; spindle structure (HeLa cells [2]): induced formation of monopolar spindles; difference in the MICs, cdc5-2 compared to wild-type cells [3]: 2 to 4 fold; IC50 (HeLa cells [4]): 510 ± 80 nM; IC50 (MRC5 cells): 4.73 ± 0.51 µM; IC50 (CDK1/cyclinB(h)): 42.1 µM; IC50 (HepG2 cells): 2.24 ± 0.04 µM |
| Cc1c2c(cc[n+]1Cc1ccccc1)c1ccc(OCc3ccccc3)cc1n2Cc1ccccc1 [DH287] | 1790 ± 290 nM | > 100 µM | 77.3% | 6.86% | 15.9% | 64.8% | 14.2% | 21.0% | 64.5% | 10.2% | 25.3% | 54.6% | 15.9% | 29.5% | 49.3% | 13.0% | 37.8% | 30.6% | 16.6% | 52.8% | cells in G1 (HeLa cells [1]; 1.92 µM, 48 hr): 51.9%; cells in G2 (G2/M) (HeLa cells [1]; 1.92 µM, 48 hr): 21.0%; IC50 (PLK2): 4.3 µM; spindle structure (HeLa cells [2]): induced formation of monopolar spindles; difference in the MICs, cdc5-2 compared to wild-type cells [3]: 2 to 4 fold; IC50 (HeLa cells [4]): 1820 ± 150 nM; IC50 (MRC5 cells): 3.03 µM; IC50 (CDK1/cyclinB(h)): 39.4 µM; IC50 (HepG2 cells): 10.7 ± 0.31 µM |
